The target of one assay is DNA-PK(h) (Homo sapiens, UniProt P78527). In words: Evaluation of inhibitory activity against DNA-PK (HTRF kinase assay, GST-cMyc-p53 substrate). It is filed as biochemical. As to conditions: for inhibition at 0.01 µM: compound concentration 0.01 μM, read-out: EXP_VALUE(% Inhibition) DNA-PK(h) 0.01 μM; for inhibition at 0.1 µM: read-out: EXP_VALUE(% Inhibition) DNA-PK(h) 0.1 μM. The method in brief: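 p53 Ser15 phosphorylation by human DNA-PK was measured by time-resolved FRET ratio (665/620 nm ×10000) using Eu-labelled anti-phospho-Ser15 and d2 anti-GST antibodies. Substrate GST-cMyc-p53 at 50 μM; Mg/ATP-initiated, 30 min at room temperature, EDTA stop.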

Assay [1] concerns the target PI3K-δ (PI3K(p1108/p857) (h)) (Homo sapiens, UniProt O00329). In words: Evaluation of inhibitory activity against PI3K-δ (HTRF kinase assay). The assay is classed as biochemical. The note with it: for inhibition at 0.01 µM: compound concentration 0.01 μM, read-out: EXP_VALUE(% Inhibition) PI3K-δ 0.01 μM; for inhibition at 0.1 µM: read-out: EXP_VALUE(% Inhibition) PI3K-δ 0.1 μM. The method in brief:
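HTRF read-out (665/620 nm ratio ×10000) used Eu-labelled anti-GST, GST-tagged GRP1 PH domain and streptavidin-allophycocyanin after EDTA/PIP3 stop.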
On the technique in general: In TR-FRET formats the signal depends on donor and acceptor labels being close together.

Read-outs that look alike come from different tables or passages of the source.

PI3K-δ (PI3K(p1108/p857) (h)), sequence (O00329 whole entry, the tested form may be a part): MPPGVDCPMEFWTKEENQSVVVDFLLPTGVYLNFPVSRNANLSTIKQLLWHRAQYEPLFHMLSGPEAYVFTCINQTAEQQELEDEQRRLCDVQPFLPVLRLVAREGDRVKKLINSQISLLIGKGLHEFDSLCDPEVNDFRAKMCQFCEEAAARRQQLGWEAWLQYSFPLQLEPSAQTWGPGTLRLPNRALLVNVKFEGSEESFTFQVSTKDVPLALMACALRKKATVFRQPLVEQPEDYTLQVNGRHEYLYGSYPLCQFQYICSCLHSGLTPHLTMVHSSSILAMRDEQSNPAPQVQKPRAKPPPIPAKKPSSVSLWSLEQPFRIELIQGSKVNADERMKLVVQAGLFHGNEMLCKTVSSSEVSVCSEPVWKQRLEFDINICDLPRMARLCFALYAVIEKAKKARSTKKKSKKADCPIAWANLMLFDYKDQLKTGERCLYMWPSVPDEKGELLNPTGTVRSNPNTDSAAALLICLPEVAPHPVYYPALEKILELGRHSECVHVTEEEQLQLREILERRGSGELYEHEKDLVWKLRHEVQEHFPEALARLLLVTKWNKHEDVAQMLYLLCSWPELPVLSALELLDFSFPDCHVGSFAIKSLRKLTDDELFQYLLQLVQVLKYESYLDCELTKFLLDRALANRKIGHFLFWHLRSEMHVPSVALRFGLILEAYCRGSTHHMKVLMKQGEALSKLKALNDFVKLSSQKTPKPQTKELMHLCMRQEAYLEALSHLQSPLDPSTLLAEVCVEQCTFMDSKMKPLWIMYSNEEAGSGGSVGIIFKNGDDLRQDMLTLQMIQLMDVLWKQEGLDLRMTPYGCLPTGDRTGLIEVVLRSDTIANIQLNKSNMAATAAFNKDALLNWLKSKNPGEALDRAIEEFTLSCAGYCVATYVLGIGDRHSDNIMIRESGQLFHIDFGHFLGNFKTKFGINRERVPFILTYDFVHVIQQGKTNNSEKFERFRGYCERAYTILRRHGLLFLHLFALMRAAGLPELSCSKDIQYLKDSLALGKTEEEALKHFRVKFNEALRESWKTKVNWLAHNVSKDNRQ
PI3K-δ (PI3K(p1108/p857) (h)), sequence (P27986 whole entry partner, the tested form may be a part): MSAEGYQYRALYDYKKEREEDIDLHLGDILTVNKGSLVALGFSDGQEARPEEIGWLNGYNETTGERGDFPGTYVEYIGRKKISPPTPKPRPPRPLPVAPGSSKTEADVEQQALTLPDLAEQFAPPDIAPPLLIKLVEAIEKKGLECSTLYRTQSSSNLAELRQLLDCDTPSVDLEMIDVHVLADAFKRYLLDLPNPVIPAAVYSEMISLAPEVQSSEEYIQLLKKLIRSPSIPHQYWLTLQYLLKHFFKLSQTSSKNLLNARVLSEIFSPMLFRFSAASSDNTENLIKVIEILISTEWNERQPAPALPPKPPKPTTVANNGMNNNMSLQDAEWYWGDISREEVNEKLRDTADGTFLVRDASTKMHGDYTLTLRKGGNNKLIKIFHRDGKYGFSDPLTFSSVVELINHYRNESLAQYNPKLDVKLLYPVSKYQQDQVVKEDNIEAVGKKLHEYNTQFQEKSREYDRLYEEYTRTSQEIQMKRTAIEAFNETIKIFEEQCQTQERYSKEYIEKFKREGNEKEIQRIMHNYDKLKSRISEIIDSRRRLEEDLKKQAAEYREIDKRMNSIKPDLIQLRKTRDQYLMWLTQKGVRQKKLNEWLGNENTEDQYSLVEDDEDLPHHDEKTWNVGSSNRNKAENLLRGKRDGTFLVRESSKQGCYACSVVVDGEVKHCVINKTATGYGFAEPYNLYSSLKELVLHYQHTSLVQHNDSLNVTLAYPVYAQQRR

For orientation: inhibition means the relative decrease from the control value, in per cent. Regarding `C[C@H](Nc1ncnc2[nH]ccc(=O)c12)c1c(Cl)c2cccc(-c3ccc(N)nc3)c2c(=O)n1-c1ccccc1` [Example 172, (S)-4-((1-(8-(6-aminopyridin-3-yl)-4-chloro-1-oxo-2-phenyl-1,2-dihydroisoquinolin-3-yl)ethyl)amino)pyrido[2,3-d]pyrimidin-5(8H)-one], the results for the inhibition at 0.01 µM (at DNA-PK(h); in assay [1]) were 82% and 53%, respectively.

`CC(=O)c1cccc2c(Cl)c([C@H](C)Nc3ncnc4[nH]ccc(=O)c34)n(-c3ccccc3)c(=O)c12` [Example 267, (S)-4-((1-(8-acetyl-4-chloro-1-oxo-2-phenyl-1,2-dihydroisoquinolin-3-yl)ethyl)amino)pyrido[2,3-d]pyrimidin-5(8H)-one]: the inhibition at 0.01 µM is 63% on DNA-PK(h) and 92% in assay [1].

Turning to `CC(C)[S@](=N)(=O)c1cccc2c(Cl)c([C@H](C)Nc3ncnc4[nH]ccc(=O)c34)n(-c3ccccc3)c(=O)c12` [Example 411, 4-(((S)-1-(4-chloro-1-oxo-2-phenyl-8-((S)-propan-2-ylsulfonimidoyl)-1,2-dihydroisoquinolin-3-yl)ethyl)amino)pyrido[2,3-d]pyrimidin-5(8H)-one], the inhibition at 0.1 µM on DNA-PK(h) (compound at 0.1 μM) is 37%; in assay [1] (compound at 0.1 μM), 4%.

Take `C[C@H](Nc1ncnc2[nH]ccc(=O)c12)c1c(Cl)c2cccc(-c3cccc(Cl)c3)c2c(=O)n1-c1ccccc1` [Example 97, (S)-4-((1-(4-chloro-8-(3-chlorophenyl)-1-oxo-2-phenyl-1,2-dihydroisoquinolin-3-yl)ethyl)amino)pyrido[2,3-d]pyrimidin-5(8H)-one]: the inhibition at 0.01 µM on DNA-PK(h) came to 35%; in assay [1], 84%. Also, the inhibition at 0.1 µM amounted to 87% at DNA-PK(h) (compound concentration 0.1 μM) and 99% in assay [1] (compound concentration 0.1 μM).

With `CON=C(C)c1cccc2c(Cl)c([C@H](C)Nc3ncnc4[nH]ccc(=O)c34)n(-c3ccccc3)c(=O)c12` (stereo in doubt) [Example 270, (S,Z)-4-((1-(4-chloro-8-(1-(methoxyimino)ethyl)-1-oxo-2-phenyl-1,2-dihydroisoquinolin-3-yl)ethyl)amino)pyrido[2,3-d]pyrimidin-5(8H)-one], the inhibition at 0.01 µM was determined as 60% at DNA-PK(h) and 63% in assay [1].

On to `CC(C)Oc1ccc(-c2cccc3c(Cl)c([C@H](C)Nc4ncnc5[nH]ccc(=O)c45)n(-c4ccccc4)c(=O)c23)cn1` [Example 101, (S)-4-((1-(4-chloro-8-(6-isopropoxypyridin-3-yl)-1-oxo-2-phenyl-1,2-dihydroisoquinolin-3-yl)ethyl)amino)pyrido[2,3-d]pyrimidin-5(8H)-one], for which the inhibition at 0.01 µM on DNA-PK(h) stood at 68%; in assay [1] it was 90%. Also, the inhibition at 0.1 µM on DNA-PK(h) (compound concentration 0.1 μM) was 94%; in assay [1] (compound concentration 0.1 μM), 102%.

`C[C@H](Nc1ncnc2[nH]ccc(=O)c12)c1c(Cl)c2cccc(-c3ccc(N4CCNCC4)cc3)c2c(=O)n1-c1ccccc1` [Example 148, (S)-4-((1-(4-chloro-1-oxo-2-phenyl-8-(4-(piperazin-1-yl)phenyl)-1,2-dihydroisoquinolin-3-yl)ethyl)amino)pyrido[2,3-d]pyrimidin-5(8H)-one]: the inhibition at 0.01 µM at DNA-PK(h) came out at 89%; in assay [1] it was 92%.

Take `C[C@H](Nc1ncnc2[nH]ccc(=O)c12)c1c(Cl)c2cccc(NC3CC3)c2c(=O)n1-c1ccccc1` [Example 323, (S)-4-((1-(4-chloro-8-(cyclopropylamino)-1-oxo-2-phenyl-1,2-dihydroisoquinolin-3-yl)ethyl)amino)pyrido[2,3-d]pyrimidin-5(8H)-one]: the figures for the inhibition at 0.01 µM (at DNA-PK(h); in assay [1]) were 8% and 22%, respectively. Also, the inhibition at 0.1 µM is 28% on DNA-PK(h) (compound concentration 0.1 μM) and 65% in assay [1] (compound concentration 0.1 μM).

For the compound `C[C@H](Nc1ncnc2[nH]ccc(=O)c12)c1c(Cl)c2cccc(-c3cncnc3C3CCCC3)c2c(=O)n1-c1ccccc1` [Example 59, (S)-4-((1-(4-chloro-8-(4-cyclopentylpyrimidin-5-yl)-1-oxo-2-phenyl-1,2-dihydroisoquinolin-3-yl)ethyl)amino)pyrido[2,3-d]pyrimidin-5(8H)-one], the inhibition at 0.01 µM came out at 32% at DNA-PK(h) and 70% in assay [1].

For `C[C@H](Nc1ncnc2[nH]ccc(=O)c12)c1c(Br)c2cccc(Cl)c2c(=O)n1-c1ccccc1` [Example 1, (S)-4-((1-(4-bromo-8-chloro-1-oxo-2-phenyl-1,2-dihydroisoquinolin-3-yl)ethyl)amino)pyrido[2,3-d]pyrimidin-5(8H)-one], the inhibition at 0.01 µM on DNA-PK(h) amounted to 52%; in assay [1], 105%. The results for the inhibition at 0.1 µM (at DNA-PK(h) (compound concentration 0.1 μM); in assay [1] (compound concentration 0.1 μM)) were 91% and 104%, respectively.

Regarding `C[C@H](Nc1ncnc2[nH]ccc(=O)c12)c1c(Cl)c2cccc(N3CCN(c4ccncc4)CC3)c2c(=O)n1-c1ccccc1` [Example 9, (S)-4-((1-(4-chloro-1-oxo-2-phenyl-8-(4-(pyridin-4-yl)piperazin-1-yl)-1,2-dihydroisoquinolin-3-yl)ethyl)amino)pyrido[2,3-d]pyrimidin-5(8H)-one], the results for the inhibition at 0.01 µM (on DNA-PK(h); in assay [1]) were 60% and 50%, respectively. The inhibition at 0.1 µM at DNA-PK(h) (compound concentration 0.1 μM) amounted to 92%; in assay [1] (compound concentration 0.1 μM), 61%.

Take `C[C@H](Nc1ncnc2[nH]ccc(=O)c12)c1c(Cl)c2cccc(N3CCN(c4ccccc4)CC3)c2c(=O)n1-c1ccccc1` [Example 326, (S)-4-((1-(4-chloro-1-oxo-2-phenyl-8-(4-phenylpiperazin-1-yl)-1,2-dihydroisoquinolin-3-yl)ethyl)amino)pyrido[2,3-d]pyrimidin-5(8H)-one]: the inhibition at 0.01 µM on DNA-PK(h) is -4%; in assay [1], 17%. For the same compound, the inhibition at 0.1 µM stood at 24% on DNA-PK(h) (compound concentration 0.1 μM) and 51% in assay [1] (compound concentration 0.1 μM).

Turning to `C[C@H](Nc1ncnc2[nH]ccc(=O)c12)c1c(Cl)c2cccc(N(C)Cc3ccccc3)c2c(=O)n1-c1ccccc1` [Example 319, (S)-4-((1-(8-(benzyl(methyl)amino)-4-chloro-1-oxo-2-phenyl-1,2-dihydroisoquinolin-3-yl)ethyl)amino)pyrido[2,3-d]pyrimidin-5(8H)-one], the inhibition at 0.01 µM on DNA-PK(h) amounted to 7%; in assay [1], 18%. The inhibition at 0.1 µM turned out to be 25% on DNA-PK(h) (compound concentration 0.1 μM) and 62% in assay [1] (compound concentration 0.1 μM).

With `C[C@H](Nc1ncnc2[nH]ccc(=O)c12)c1c(Cl)c2cccc(C#N)c2c(=O)n1-c1ccccc1` [Example 265, (S)-4-chloro-1-oxo-3-(1-((5-oxo-5,8-dihydropyrido[2,3-d]pyrimidin-4-yl)amino)ethyl)-2-phenyl-1,2-dihydroisoquinoline-8-carbonitrile], the inhibition at 0.01 µM worked out at 40% at DNA-PK(h) and 71% in assay [1]. Besides, the inhibition at 0.1 µM turned out to be 77% on DNA-PK(h) (compound concentration 0.1 μM) and 87% in assay [1] (compound concentration 0.1 μM).

For `Cc1nc(-c2cccc3c(Cl)c([C@H](C)Nc4ncnc5[nH]ccc(=O)c45)n(-c4ccccc4)c(=O)c23)[nH]c1C` [Example 288, (S)-4-((1-(4-chloro-8-(4,5-dimethyl-1H-imidazol-2-yl)-1-oxo-2-phenyl-1,2-dihydroisoquinolin-3-yl)ethyl)amino)pyrido[2,3-d]pyrimidin-5(8H)-one], the inhibition at 0.01 µM at DNA-PK(h) was determined as 8%; in assay [1] it was 28%.

For the origin of these results see patent US20230072683A1, “PYRIDO-PYRIMIDIN DERIVATIVES AND PHARMACEUTICAL COMPOSITION, FOR USE IN PREVENTING OR TREATING PI3 KINASE RELATED DISEASES, COMPRISING SAME AS ACTIVE INGREDIENT” (BORYUNG PHARMACEUTICAL CO., LTD, priority 2019, published 2023).
